PubChem BioAssay (NCI)
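Five compound concentrations were applied to cells in 96-well plates for 48 hours; endpoints were derived by simple linear interpolation of the resulting dose-response curve. GI50 is the concentration that inhibits growth by half. TGI denotes the concentration required for complete inhibition of growth.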

How the values were obtained:
Test in all cases: NCI-60 cell line screen, 48 h
HCC-2998 colon = test system: HCC-2998 colon
UO-31 renal = test system: UO-31 renal
SK-OV-3 ovarian = test system: SK-OV-3 ovarian
MDA-MB-231 breast = test system: MDA-MB-231 breast
HOP-62 NSCLC = test system: HOP-62 NSCLC
OVCAR-8 ovarian = test system: OVCAR-8 ovarian
MDA-MB-435 = test system: MDA-MB-435
UACC-257 melanoma = test system: UACC-257 melanoma
NCI-H226 lung = test system: NCI-H226 lung
SK-MEL-2 melanoma = test system: SK-MEL-2 melanoma
OVCAR-5 ovarian = test system: OVCAR-5 ovarian
NCI-H460 lung = test system: NCI-H460 lung
LOX IMVI melanoma = test system: LOX IMVI melanoma
HL-60(TB) leukemia = test system: HL-60(TB) leukemia
U251 CNS = test system: U251 CNS
CCRF-CEM leukemia = test system: CCRF-CEM leukemia
SF-295 CNS = test system: SF-295 CNS
SN12C renal = test system: SN12C renal
KM12 colon = test system: KM12 colon
NCI-H23 lung = test system: NCI-H23 lung
MALME-3M melanoma = test system: MALME-3M melanoma
A498 renal = test system: A498 renal
PC-3 prostate = test system: PC-3 prostate
HCT-116 colon = test system: HCT-116 colon
UACC-62 melanoma = test system: UACC-62 melanoma
ACHN renal = test system: ACHN renal
COLO 205 colon = test system: COLO 205 colon
IGROV1 ovarian = test system: IGROV1 ovarian

CC1CN(S(=O)(=O)c2oc(-c3ccc(Cl)cc3)nc2C#N)CC(C)O1 (stereo unspecified)
GI50 (HCC-2998 colon): 2.27 µM | TGI (HCC-2998 colon): 5.43 µM | GI50 (UO-31 renal): 1.56 µM | TGI (UO-31 renal): 2.91 µM | GI50 (SK-OV-3 ovarian): 25.1 µM | TGI (SK-OV-3 ovarian): 70.6 µM | GI50 (MDA-MB-231 breast): 1.91 µM | TGI (MDA-MB-231 breast): 3.8 µM | GI50 (HOP-62 NSCLC): 14 µM | TGI (HOP-62 NSCLC): 42.2 µM | GI50 (OVCAR-8 ovarian): 3.19 µM | TGI (OVCAR-8 ovarian): 21.2 µM | GI50 (MDA-MB-435): 1.89 µM | TGI (MDA-MB-435): 4.01 µM | GI50 (UACC-257 melanoma): 2.15 µM | TGI (UACC-257 melanoma): 6.34 µM | GI50 (NCI-H226 lung): 18.1 µM | TGI (NCI-H226 lung): 39.9 µM | GI50 (SK-MEL-2 melanoma): 4.1 µM | TGI (SK-MEL-2 melanoma): 14.6 µM | GI50 (OVCAR-5 ovarian): 2.07 µM | TGI (OVCAR-5 ovarian): 4.44 µM | GI50 (NCI-H460 lung): 11.5 µM | TGI (NCI-H460 lung): 26 µM | GI50 (LOX IMVI melanoma): 0.926 µM | TGI (LOX IMVI melanoma): 2.35 µM | GI50 (HL-60(TB) leukemia): 2.09 µM | TGI (HL-60(TB) leukemia): 5.84 µM | GI50 (U251 CNS): 9.4 µM | TGI (U251 CNS): 22.7 µM | GI50 (CCRF-CEM leukemia): 0.505 µM | TGI (CCRF-CEM leukemia): 4.24 µM | GI50 (SF-295 CNS): 13.8 µM | TGI (SF-295 CNS): 27.2 µM | GI50 (SN12C renal): 1.7 µM | TGI (SN12C renal): 3.23 µM | GI50 (KM12 colon): 10.3 µM | TGI (KM12 colon): 23.5 µM | GI50 (NCI-H23 lung): 3.99 µM | TGI (NCI-H23 lung): 15.9 µM | GI50 (MALME-3M melanoma): 1.57 µM | TGI (MALME-3M melanoma): 2.96 µM | GI50 (A498 renal): 14.4 µM | TGI (A498 renal): 27.5 µM | GI50 (PC-3 prostate): 1.97 µM | TGI (PC-3 prostate): 4.04 µM | GI50 (HCT-116 colon): 1.59 µM | TGI (HCT-116 colon): 3.13 µM | GI50 (UACC-62 melanoma): 3.08 µM | TGI (UACC-62 melanoma): 11 µM | GI50 (ACHN renal): 1.74 µM | TGI (ACHN renal): 3.13 µM | GI50 (COLO 205 colon): 2.04 µM | TGI (COLO 205 colon): 4.35 µM | GI50 (IGROV1 ovarian): 1.87 µM | TGI (IGROV1 ovarian): 3.69 µM
